Like-named read-outs stand apart in the source and are kept apart here. One block for each molecule: values may come before it.
Molecular target: T1, SIRT1 (Homo sapiens, UniProt Q96EB6)
T1 sequence (Q96EB6 1-747): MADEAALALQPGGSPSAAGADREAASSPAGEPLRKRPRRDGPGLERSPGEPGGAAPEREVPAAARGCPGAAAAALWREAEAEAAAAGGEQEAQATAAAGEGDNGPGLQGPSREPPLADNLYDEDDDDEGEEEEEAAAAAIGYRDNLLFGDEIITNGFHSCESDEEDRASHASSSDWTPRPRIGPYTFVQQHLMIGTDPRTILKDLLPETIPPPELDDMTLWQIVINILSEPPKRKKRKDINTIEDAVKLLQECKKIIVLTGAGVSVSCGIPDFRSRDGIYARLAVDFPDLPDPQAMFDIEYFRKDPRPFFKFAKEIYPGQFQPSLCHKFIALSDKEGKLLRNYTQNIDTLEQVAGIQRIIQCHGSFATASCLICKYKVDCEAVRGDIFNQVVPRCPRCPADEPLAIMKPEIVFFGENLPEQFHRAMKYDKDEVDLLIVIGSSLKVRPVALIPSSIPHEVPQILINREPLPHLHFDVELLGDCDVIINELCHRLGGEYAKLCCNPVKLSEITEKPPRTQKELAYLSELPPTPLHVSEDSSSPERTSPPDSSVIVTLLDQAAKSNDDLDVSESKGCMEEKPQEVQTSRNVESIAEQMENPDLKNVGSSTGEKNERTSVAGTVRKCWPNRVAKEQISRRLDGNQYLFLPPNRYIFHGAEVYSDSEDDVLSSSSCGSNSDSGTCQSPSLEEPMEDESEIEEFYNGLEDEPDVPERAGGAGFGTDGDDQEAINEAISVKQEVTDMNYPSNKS
Assay: Trp mass spectrometry assay of SIRT1 activation
Assay type: biochemical
Conditions: for TRP Activity (EC1.5): EC1.5 = concentration that results in 150% activation of SIRT1
Procedure, shortened: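 Activation read-out: mass-spec measurement of O-acetyl-ADP-ribose or deacetylated Trp peptide versus compound-free controls, giving EC1.5 and Percent Maximum Activation. Reactions ran 25 min at 25 °C, pH 7.5, with 120 μM βNAD+, 0.5 μM acetylated p53-derived peptide and 10 nM His-tagged SIRT1.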

[1] = Trp peptide assay, maximum activity relative to control (100%), read-out: TRP MAX RESP (percent maximum fold activation)
[2] = concentration giving 150% activation of SIRT1, Trp peptide substrate
[3] = Trp mass spectrometry assay, concentration of test compound giving 150% activation of SIRT1
[4] = Trp mass spectrometry assay, EC1.5 = concentration of test compound that results in 150% activation of SIRT1
[5] = Trp mass spectrometry assay, percent maximum fold activation of SIRT1, read-out: Tryp % Fold Act

TRP Activity (EC1.5) (Trp peptide assay): A (A (EC1.5<1 μM))
Emax [1]: > 150%
Structure (SMILES): Cc1cc(-c2ccc3c(n2)N(C(=O)Nc2ccc4c(c2)OCO4)[C@H]2CCN3C2)ccn1 [(9S)-N-(2H-1,3-benzodioxo1-5-yl)-5-(2-methylpyridin-4-yl)-1,6,8-triazatricyclo[7.2.1.0 {2,7}]dodeca-2(7),3,5-triene-8-carboxamide]

TRP Activity (EC1.5) (Trp peptide assay): A (A (EC1.5<1 μM))
Emax [1]: > 150%
Structure (SMILES): O=C(Nc1cccnn1)N1c2nc(-c3ccnc(C(F)(F)F)c3)ccc2N2CCC[C@H]1C2 [(9S)-N-(pyridazin-3-yl)-5-[2-(trifluoromethyl)pyridin-4-yl]-1,6,8-triazatricyclo[7.3.1.0 {2,7}]trideca-2(7),3,5-triene-8-carboxamide]

Tryp AVG EC1.5 (μM) [2]: B (B (EC1.5 1-25 μM))
Structure (SMILES): CC(C)(C)c1nnc(NC(=O)N2c3nc(-c4cccc(C(F)(F)F)c4)ccc3N3CC[C@H]2C3)s1 [Example 649]

Tryp AVG EC1.5 (μM) [3]: A (A (EC1.5<1 μM))
Structure (SMILES): COc1cc(NC(=O)N2c3nc(-c4cncc(F)c4)ccc3N3CCC[C@H]2C3)ncn1 [Example 404]

TRP Activity (EC1.5) (Trp peptide assay): A (A (EC1.5<1 μM))
Emax [1]: > 150%
Structure (SMILES): O=C(Nc1ccc(F)cn1)N1c2nc(N3CCC[C@H](C(F)(F)F)C3)ccc2N2CCC[C@H]1C2 [drawing 1177, (9S)-N-(5-fluoropyridin-2-yl)-5-[(3S)-3-(trifluoromethyl)piperidin-1-yl]-1,6,8-triazatricyclo[7.3.1.0 {2,7}]trideca-2(7),3,5-triene-8-carboxamide]

Tryp AVG EC1.5 (μM) [4]: A (A (EC1.5<1 μM))
Structure (SMILES): NC(=O)CN1CCC(c2cccc(NC(=O)N3c4nc(-c5cccc(C(F)(F)F)c5)ccc4N4CC[C@H]3C4)c2)C1 (some centres unmarked) [Example 594]

Tryp AVG EC1.5 (μM) [2]: A (A (EC1.5<1 μM))
Structure (SMILES): CC(=O)N1CCC(c2cccc(NC(=O)N3c4nc(-c5cccc(C(F)(F)F)c5)ccc4N4CC[C@H]3C4)c2)C1 (some centres unmarked) [Example 635]

Tryp AVG EC1.5 (μM) [4]: B (B (EC1.5 1-25 μM))
Structure (SMILES): N#Cc1cncc(-c2ccc3c(n2)N(C(=O)Nc2ccncn2)[C@H]2CCCN3C2)c1 [Example 558]

TRP Activity (EC1.5) (Trp peptide assay): B (B (EC1.5 1-25 μM))
Emax [1]: > 150%
Structure (SMILES): CCOc1cnc(NC(=O)N2c3nc(-c4ccnc(C)c4)ccc3N3CC[C@H]2C3)cn1 [(9S)-N-(5-ethoxypyrazin-2-yl)-5-(2-methylpyridin-4-yl)-1,6,8-triazatricyclo[7.2.1.0 {2,7}]dodeca-2(7),3,5-triene-8-carboxamide]

Tryp AVG EC1.5 (μM) [3]: A (A (EC1.5<1 μM))
Structure (SMILES): O=C(Nc1ccccn1)N1c2nc(-c3ccnc(N4CCC(C(F)(F)F)C4)c3)ccc2N2CC[C@H]1C2 (some centres unmarked) [Example 367]

Tryp AVG EC1.5 (μM) [4]: B (B (EC1.5 1-25 μM))
Structure (SMILES): NCc1ccc(NC(=O)N2c3nc(-c4cccc(C(F)(F)F)c4)ccc3N3CC[C@H]2C3)cc1 [Example 429]

Tryp AVG EC1.5 (μM) [2]: B (B (EC1.5 1-25 μM))
Structure (SMILES): CS(=O)(=O)c1cccc(-c2ccc3c(n2)N(C(=O)Nc2cccc(-c4cnco4)n2)[C@H]2CCN3C2)c1 [Example 715]

Tryp AVG EC1.5 (μM) [2]: A (A (EC1.5<1 μM))
Structure (SMILES): O=C(NCc1ncc(-c2cccc(NC(=O)N3c4nc(-c5cccc(C(F)(F)F)c5)ccc4N4CC[C@H]3C4)c2)o1)OCc1ccccc1 [Example 706]

Tryp AVG EC1.5 (μM) [3]: A (A (EC1.5<1 μM))
Structure (SMILES): O=C(Nc1cccc(C2(C(F)(F)F)N=N2)c1)N1c2nc(-c3cccc(C(F)(F)F)c3)ccc2N2CCC[C@H]1C2 [Example 335]

Tryp AVG EC1.5 (μM) [2]: A (A (EC1.5<1 μM))
Structure (SMILES): O=C(Nc1nnc(-c2ccncc2)s1)N1c2nc(-c3cccc(C(F)(F)F)c3)ccc2N2CC[C@H]1C2 [Example 733]

Tryp AVG EC1.5 (μM) [4]: B (B (EC1.5 1-25 μM))
Emax [5]: > 150%
Structure (SMILES): O=C(Nc1cnccn1)N1c2nc(-c3cccc(Cl)c3)cc(O)c2N2CCC[C@H]1C2 [Example 443]

TRP Activity (EC1.5) (Trp peptide assay): A (A (EC1.5<1 μM))
Emax [1]: > 150%
Structure (SMILES): CCc1cc(-c2ccc3c(n2)N(C(=O)Nc2cnccn2)[C@H]2CCN3C2)ccn1 [(9S)-5-(2-ethylpyridin-4-yl)-N-(pyrazin-2-yl)-1,6,8-triazatricyclo[7.2.1.0 {2,7}]dodeca-2(7),3,5-triene-8-carboxamide]

TRP Activity (EC1.5) (Trp peptide assay): C (C (EC1.5>25 μM))
Emax [1]: > 150%
Structure (SMILES): Cc1cc(-c2ccc3c(n2)N(C(=O)Nc2cncnc2)[C@H]2CCN3C2)ccn1 [(9S)-5-(2-methylpyridin-4-yl)-N-(pyrimidin-5-yl)-1,6,8-triazatricyclo[7.2.1.0 {2,7}]dodeca-2(7),3,5-triene-8-carboxamide]

TRP Activity (EC1.5) (Trp peptide assay): A (A (EC1.5<1 μM))
Emax [1]: > 150%
Structure (SMILES): Cc1cc(-c2ccc3c(n2)N(C(=O)Nc2ccc4[nH]ncc4c2)[C@H]2CCN3C2)ccn1 [(9S)-N-(1H-indazol-5-yl)-5-(2-methylpyridin-4-yl)-1,6,8-triazatricyclo[7.2.1.0 {2,7}]dodeca-2(7),3,5-triene-8-carboxamide]

Tryp AVG EC1.5 (μM) [3]: B (B (EC1.5 1-25 μM))
Structure (SMILES): O=C(Nc1cnccn1)N1c2nc(-c3cc(Cl)cc(Cl)c3)ccc2N2CC[C@H]1C2 [Example 364]

TRP Activity (EC1.5) (Trp peptide assay): A (A (EC1.5<1 μM))
Emax [1]: > 150%
Structure (SMILES): O=C(Nc1cnccn1)N1c2nc(N3CCC(C(F)(F)F)CC3)ccc2N2CC[C@H]1C2 [(9S)-N-(pyrazin-2-yl)-5-[4-(trifluoromethyl)piperidin-1-yl]-1,6,8-triazatricyclo[7.2.1.0 {2,7}]dodeca-2(7),3,5-triene-8-carboxamide]

Tryp AVG EC1.5 (μM) [4]: B (B (EC1.5 1-25 μM))
Structure (SMILES): O=C(NCCc1ccccc1)N1c2nc(-c3cccc(C(F)(F)F)c3)ccc2N2CC[C@H]1C2 [Example 598]

Tryp AVG EC1.5 (μM) [4]: B (B (EC1.5 1-25 μM))
Structure (SMILES): CC(=O)O[C@@H]1CN2C[C@H]1N(C(=O)Nc1ccccn1)c1nc(-c3cccc(C(F)(F)F)c3)ccc12 [Example 602]

Tryp AVG EC1.5 (μM) [4]: B (B (EC1.5 1-25 μM))
Structure (SMILES): Cc1[nH]ncc1-c1ccc2c(n1)N(C(=O)Nc1cccnc1)[C@H]1CCN2C1 [Example 490]

TRP Activity (EC1.5) (Trp peptide assay): C (C (EC1.5>25 μM))
Emax [1]: < 150%
Structure (SMILES): Cc1ccc(-c2ccc3c(n2)N(C(=O)NC2CCCOC2)[C@H]2CCN3C2)cn1 (stereo partly drawn) [(9S)-5-(6-methylpyridin-3-yl)-N-(oxan-3-yl)-1,6,8-triazatricyclo[7.2.1.0^{2,7}]dodeca-2(7),3,5-triene-8-carboxamide]

Tryp AVG EC1.5 (μM) [2]: A (A (EC1.5<1 μM))
Structure (SMILES): O=C(Nc1cccc(CN2CCOCC2)c1)N1c2nc(-c3cccc(C(F)(F)F)c3)ccc2N2CC[C@H]1C2 [Example 629]

Tryp AVG EC1.5 (μM) [4]: A (A (EC1.5<1 μM))
Structure (SMILES): O=C(Nc1ccnc(Br)c1)N1c2nc(-c3cccc(C(F)(F)F)c3)ccc2N2CC[C@H]1C2 [Example 541]

Tryp AVG EC1.5 (μM) [4]: C (C (EC1.5>25 μM))
Structure (SMILES): CC(=O)N1CCCN(c2ccc3c(n2)N(C(=O)Nc2ccncn2)[C@H]2CCCN3C2)CC1 [Example 434]

Tryp AVG EC1.5 (μM) [4]: C (C (EC1.5>25 μM))
Emax [5]: < 150%
Structure (SMILES): Cc1cc(C)n(N)c1CC1C=CC(CCC(=O)NCc2cn(-c3cccc(NC(=O)N4c5nc(-c6cccc(C(F)(F)F)c6)ccc5N5CC[C@H]4C5)c3)nn2)=N1 (some centres unmarked) [Example 622]

Tryp AVG EC1.5 (μM) [4]: C (C (EC1.5>25 μM))
Structure (SMILES): COc1cc(NC(=O)N2c3nc(-c4cnccc4C)ccc3N3CCC[C@H]2C3)ncn1 [Example 511]

Tryp AVG EC1.5 (μM) [2]: A (A (EC1.5<1 μM))
Structure (SMILES): O=C(C1CC1)N1CCC(c2cccc(NC(=O)N3c4nc(-c5cccc(C(F)(F)F)c5)ccc4N4CC[C@H]3C4)c2)C1 (some centres unmarked) [Example 637]

Tryp AVG EC1.5 (μM) [4]: B (B (EC1.5 1-25 μM))
Structure (SMILES): O=C(Nc1cnccn1)N1c2nc(-c3cccc(Cl)c3)ccc2N2CCC1CC2 [Example 543]

Tryp AVG EC1.5 (μM) [2]: A (A (EC1.5<1 μM))
Structure (SMILES): O=C(Nc1cccc(-c2ccccn2)c1)N1c2nc(-c3cccc(C(F)(F)F)c3)ccc2N2CC[C@H]1C2 [Example 667]

Tryp AVG EC1.5 (μM) [4]: A (A (EC1.5<1 μM))
Structure (SMILES): O=C(CCCC[C@@H]1SCC2NC(=O)NC21)NCCCCCC(=O)NCc1ccc(NC(=O)N2c3nc(-c4cccc(C(F)(F)F)c4)ccc3N3CCC[C@H]2C3)cc1 (some centres unmarked) [Example 430]

Tryp AVG EC1.5 (μM) [4]: C (C (EC1.5>25 μM))
Structure (SMILES): O=C(Nc1cncc(F)c1)N1c2nc(N3CC[C@H](F)C3)ccc2S(=O)(=O)N2CC[C@H]1C2 [Example 469]

TRP Activity (EC1.5) (Trp peptide assay): A (A (EC1.5<1 μM))
Emax [1]: > 150%
Structure (SMILES): Cc1cc(-c2ccc3c(n2)N(C(=O)Nc2ccncn2)[C@H]2CCCN3C2)ccn1 [(9S)-5-(2-methylpyridin-4-yl)-N-(pyrimidin-4-yl)-1,6,8-triazatricyclo[7.3.1.0 {2,7}]trideca-2(7),3,5-triene-8-carboxamide]

Tryp AVG EC1.5 (μM) (Trp peptide substrate, concentration giving 150% activation of SIRT1): B (B (EC1.5 1-25 μM))
Structure (SMILES): Cc1nn(C)cc1NC(=O)N1c2nc(-c3cccc(C(F)(F)F)c3)ccc2N2CC[C@H]1C2 [Example 92]

Tryp AVG EC1.5 (μM) [4]: B (B (EC1.5 1-25 μM))
Structure (SMILES): N#Cc1ccccc1-c1ccc2c(n1)N(C(=O)Nc1cnccn1)[C@H]1CCCN2C1 [Example 450]

Reference: US9834558B2, “Substituted bridged urea analogs as sirtuin modulators” (GLAXOSMITHKLINE LLC, priority 2013, dated 2017)
